Test results reported in patent publication US7071293B1, “Alpha helical peptides with broad spectrum antimicrobial activity that are insensitive to salt” (priority 1999, dated 2006).
≈ marks a conversion by molar mass, not a printed value. Where two headings read alike, the source gives them in different places. Ends that are not written are not given here.

Experiments:
S. aureus 930918-3 = conditions: for MIC S. aureus [NaCl] High / MIC S. aureus [NaCl] Low: 930918-3, pH 7.4
P. aeruginosa MR 3007 = conditions: for MIC P. aeruginosa [NaCl] High / MIC P. aeruginosa [NaCl] Low: MR 3007, pH 7.4
L. monocytogenes EGD = test: Two stage radial diffusion assay (MIC); type: cell-based; parameters: unit not given here; conditions: underlay 0 mM NaCl
E. coli ML-35p = conditions: for E. coli ML-35p MIC, 0 mM NaCl: underlay 0 mM NaCl; for MIC E. coli [NaCl] High: high salt underlay (10 mM sodium phosphate buffer +100 mM NaCl, pH 7.4); for MIC E. coli [NaCl] High / MIC E. coli [NaCl] Low: Table 13; for MIC E. coli [NaCl] Low: low salt underlay (10 mM sodium phosphate buffer, pH 7.4)
N. gonorrhoeae = test: Two stage radial diffusion assay (MIC); type: cell-based; parameters: unit not given here; conditions: done only at 100 mM NaCl
B. cepacia ATCC 25416 = test: Two stage radial diffusion assay (MIC); type: cell-based; parameters: unit not given here; conditions: underlay 0 mM NaCl
MRSA ATCC 33591 = conditions: for MIC MRSA [NaCl] High / MIC MRSA [NaCl] Low: ATCC 33591, pH 7.4
E. coli DH5α = conditions: for EC50: DH5α; for EC50 E. coli DH5α: ionic strength 25 mM, avg ± sem
E. coli DH-5α = conditions: DH-5α
[1] = ionic strength 25 mM, avg ± sem
[2] = ionic strength 175 mM, avg ± sem

Compound | EC50 P. aeruginosa PAO1 (P. aeruginosa PAO1; [1]) [µg/mL] | EC50 P. aeruginosa PAO1 (P. aeruginosa PAO1; [2]) [µg/mL] | MIC S. aureus [NaCl] High (S. aureus 930918-3) [µg/mL] | MIC S. aureus [NaCl] Low (S. aureus 930918-3) [µg/mL] | MIC P. aeruginosa [NaCl] High (P. aeruginosa MR 3007) [µg/mL] | MIC P. aeruginosa [NaCl] Low (P. aeruginosa MR 3007) [µg/mL] | MIC E. coli [NaCl] High (E. coli ML-35p) [µg/mL] | MIC E. coli [NaCl] Low (E. coli ML-35p) [µg/mL] | MIC MRSA [NaCl] High (MRSA ATCC 33591) [µg/mL] | MIC MRSA [NaCl] Low (MRSA ATCC 33591) [µg/mL] | further results
CC[C@H](C)[C@H](N)C(=O)N[C@@H](CCCNC(=N)N)C(=O)N[C@@H](CCCNC(=N)N)C(=O)N[C@H](C(=O)N[C@H](C(=O)N[C@@H](CCCNC(=N)N)C(=O)N[C@@H](CCCCN)C(=O)N[C@H](C(=O)N[C@H](C(=O)N[C@@H](Cc1c[nH]cn1)C(=O)N[C@H](C(=O)N[C@H](C(=O)N[C@@H](CCCCN)C(=O)N[C@@H](CCCCN)C(=O)O)[C@@H](C)CC)[C@@H](C)CC)[C@@H](C)CC)[C@@H](C)CC)[C@@H](C)CC)[C@@H](C)CC [SMAP29X-14D] | 0.65 ± 0.06 (≈ 0.361 µM) | 7.11 ± 2.40 (≈ 3.95 µM) |  |  |  |  |  |  |  |  | 
CC[C@H](C)[C@H](NC(=O)[C@H](CCCNC(=N)N)NC(=O)[C@H](CCCNC(=N)N)NC(=O)[C@@H](NC(=O)[C@@H](N)CC(N)=O)[C@@H](C)CC)C(=O)N[C@H](C(=O)N[C@@H](CCCNC(=N)N)C(=O)N[C@@H](CCCCN)C(=O)N[C@H](C(=O)N[C@H](C(=O)N[C@@H](Cc1c[nH]cn1)C(=O)N[C@H](C(=O)N[C@H](C(=O)N[C@@H](CCCCN)C(=O)N[C@@H](CCCCN)C(=O)N[C@@H](Cc1ccc(O)cc1)C(N)=O)[C@@H](C)CC)[C@@H](C)CC)[C@@H](C)CC)[C@@H](C)CC)[C@@H](C)CC [SMAP29X-16C] | 0.65 (≈ 0.313 µM) | 2.21 (≈ 1.06 µM) |  |  |  |  |  |  |  |  | 
GLRKRLRKFRNKIKEKLKKIG [Peptide 19] |  |  |  |  |  |  |  |  |  |  | S. aureus 930918-3 MIC, 0 mM NaCl (S. aureus 930918-3): 1.8 µg/mL; P. aeruginosa MR-3007 MIC, 0 mM NaCl (P. aeruginosa MR 3007): 0.7 µg/mL; L. monocytogenes in underlays of low, normal and high salinity, 0 mM NaCl (L. monocytogenes EGD): 0.3; E. coli ML-35p MIC, 0 mM NaCl (E. coli ML-35p; Table 15): 2.3 µg/mL; N. gonorrhoeae F 62 (serum-sensitive) (N. gonorrhoeae; strain F 62 (serum-sensitive)): 0.6; N. gonorrhoeae FA 19 (serum-resistant) (N. gonorrhoeae; strain FA 19 (serum-resistant)): >79.1; B. cepacia ATCC 25416 in underlays of low, normal and high salinity, 0 mM NaCl (B. cepacia ATCC 25416): >250; MRSA ATCC 33591 MIC, 0 mM NaCl (MRSA ATCC 33591): 19.4 µg/mL
IRRIIRKIIHIIKK-NH2 [Peptide 13] |  |  |  |  |  |  |  |  |  |  | S. aureus 930918-3 MIC, 0 mM NaCl (S. aureus 930918-3): 1.03 ± 0.03 µg/mL; S. aureus 930918-3 MIC, 175 mM NaCl (S. aureus 930918-3): 5.93 ± 1.12 µg/mL; P. aeruginosa MR-3007 MIC, 0 mM NaCl (P. aeruginosa MR 3007): 0.84 ± 0.06 µg/mL; P. aeruginosa MR-3007 MIC, 175 mM NaCl (P. aeruginosa MR 3007): 19.7 ± 2.2 µg/mL; MRSA ATCC 33591 MIC, 0 mM NaCl (MRSA ATCC 33591): 2.39 ± 0.07 µg/mL; MRSA ATCC 33591 MIC, 175 mM NaCl (MRSA ATCC 33591): >79.1 µg/mL; P. aeruginosa PA-01 MIC, 0 mM NaCl (P. aeruginosa PA-01): 1.03 ± 0.08 µg/mL; P. aeruginosa PA-01 MIC, 175 mM NaCl (P. aeruginosa PA-01): 7.45 ± 0.87 µg/mL
IRRIIRKIIHIIKK-NH2 [SMAP29X-14C] | 0.29 ± 0.04 | 1.21 ± 0.05 |  |  |  |  |  |  |  |  | 
KIKEKLKKIGQKIQG [CAP18-15b] | 10.3 ± 0.3 |  | >250 | >250 | >250 | 8.7 | >250 | 1.6 | >250 | >250 | EC50 P. aeruginosa PAO1 (P. aeruginosa PAO1; PAO1): >80 µg/mL; EC50 (E. coli DH5α): 4150 ± 1040 nM; EC50 E. coli DH5α (E. coli DH5α): 7.23 ± 1.81 µg/mL
KIKEKLKKIGQKIQGLL [CAP18-17] | 2.33 ± 0.35 |  | >250 | >250 | >250 | 5.1 | 1.9 | 9.7 | >250 | >250 | EC50 P. aeruginosa PAO1 (P. aeruginosa PAO1; PAO1): >25 µg/mL; EC50 (E. coli DH5α): 1270 ± 200 nM; EC50 E. coli DH5α (E. coli DH5α): 2.51 ± 0.38 µg/mL
KNIRRIIRKIIHIIKKYG [SMAP29X-18C] | 0.24 ± 0.01 | 0.61 ± 0.12 |  |  |  |  |  |  |  |  | 
KNIRRIIRKIIHIIKKYG-NH2 [SMAP29X-18B] | 0.16 ± 0.01 | 0.54 ± 0.05 |  |  |  |  |  |  |  |  | 
KNLRRIIRKIIHIIKKYG-NH2 [SMAP29X-18A] | 0.22 ± 0.00 | 0.49 ± 0.02 |  |  |  |  |  |  |  |  | 
KNLRRIIRKIIHIIKKYGPTILRIIRIIG-NH2 [SMAP29X] | 2.74 ± 0.65 | 4.51 ± 0.24 | 1.5 | 1.6 | 1.0 | 2.6 | 0.8 | 1.5 | 1.0 | 6.2 | 
LRKFRNKIKEKLKKIGQKIQG [CAP18-21b] | 1.83 ± 0.51 | 3.45 ± 0.02 | >250 | 16.3 | 23.5 | 2.9 | 0.5 | 2.3 | >250 | 10.3 | EC50 (E. coli DH5α): 1170 ± 130 nM; EC50 E. coli DH5α (E. coli DH5α): 2.99 ± 0.33 µg/mL
LRRIIRKIIHIIK-NH2 [Peptide 15] |  |  |  |  |  |  |  |  |  |  | S. aureus 930918-3 MIC, 0 mM NaCl (S. aureus 930918-3): 1.32 ± 0.22 µg/mL; S. aureus 930918-3 MIC, 175 mM NaCl (S. aureus 930918-3): 6.39 ± 1.12 µg/mL; E. coli DH-5α MIC, 0 mM NaCl (E. coli DH-5α): 0.82 ± 0.12 µg/mL; E. coli DH-5α MIC, 175 mM NaCl (E. coli DH-5α): 5.35 ± 1.87 µg/mL; P. aeruginosa MR-3007 MIC, 0 mM NaCl (P. aeruginosa MR 3007): 0.96 ± 0.08 µg/mL; P. aeruginosa MR-3007 MIC, 175 mM NaCl (P. aeruginosa MR 3007): 9.14 ± 4.81 µg/mL; E. coli ML-35p MIC, 0 mM NaCl (E. coli ML-35p; Table 15): 0.64 ± 0.15 µg/mL; E. coli ML-35p MIC, 175 mM NaCl (E. coli ML-35p; underlay 175 mM NaCl, Table 15): 12.6 ± 2.8 µg/mL; MRSA ATCC 33591 MIC, 0 mM NaCl (MRSA ATCC 33591): 2.49 ± 0.27 µg/mL; MRSA ATCC 33591 MIC, 175 mM NaCl (MRSA ATCC 33591): 65.8 ± 13.3 µg/mL; P. aeruginosa PA-01 MIC, 0 mM NaCl (P. aeruginosa PA-01): 1.07 ± 0.19 µg/mL; P. aeruginosa PA-01 MIC, 175 mM NaCl (P. aeruginosa PA-01): 4.66 ± 1.57 µg/mL
